Assays:
BDC2.5 TCR = test: I-Ag7 SABR-II library screen, enrichment score; type: cell-based, mouse; settings: I-Ag7 library
Source text: We then asked whether SABR-IIs could be used to present a library of epitopes for CD4^+ T cell antigen discovery. To that end, we constructed a SABR-II library to present epitopes derived from pancreatic islets in I-Ag7 by curating a list of 4,075 published epitopes from the Immune Epitope Database (iedb.org)[50] and a study by Wan et al.[51] (Supplementary Table 1). Of note, this defined library consisted of unmodified epitopes from endogenous proteins, synthetic mimotopes, deamidated epitopes and hybrid insulin peptides (HIPs) that arise from post-translational fusion and are not genetically encoded in vivo[52],[53]. The epitope library was inserted into the I-Ag7 SABR-II backbone through pooled oligonucleotide synthesis, amplification and ligation-free cloning (Extended Data Fig. 3a). The I-Ag7 SABR-II-library was then expressed in NFAT–GFP Jurkat cells. We confirmed that after sequencing, the library accounted for a mean of 708 reads per epitope (Extended Data Fig. 3b). As a proof of concept, we performed co-incubation assays with Jurkat cells expressing the BDC2.5 TCR and sorted the top 1–2% of GFP^+CD69^+ cells at a rate of ~20 min per replicate with three replicates per TCR. We extracted the genomic DNA from sorted cells, amplified the SABR portion of the integrated proviruses and subjected the amplicons to Illumina sequencing (Extended Data Fig. 3c,d). The 1–2% sort gate represents >50-fold enrichment of cognate epitopes with minimal loss of signal (Extended Data Fig. 3e–h). Sequence reads were aligned to the I-Ag7 SABR-II backbone and the corresponding epitopes were scored based on their read counts. For each TCR under investigation, an enrichment score (ES) was determined for all the epitopes in a library. In each experiment, three replicates of a sort with TCR-expressing Jurkat cells were performed and reads were counted post-sequencing. In addition, three replicates of the unsorted library were also sequenced. A linear regression model was built using the unsorted library counts and used to determine the expected abundance of each epitope in the library. The ES was calculated based on the difference between the measured and the expected abundance of each epitope on a per-TCR basis (Fig. 1e). Based on ES values, two quantitative thresholds were used to determine putative cognate epitopes of a given TCR. A high-confidence zone containing clear outliers with a high ES and a low-confidence zone containing weak outliers with a moderately high ES were determined (Fig. 1e). This two-tiered strategy was used to call putative hits from screens. All the top-scoring epitopes for the BDC2.5 TCR were known BDC2.5 ligands containing the WXRM(D/E) motif (Fig. 1f,g, enriched ligands in red), a well-characterized trait of the BDC2.5 TCR[43],[54]–[56]. Across several independent experiments there was limited variation in ES values for the same TCRs and several epitopes fell into high- or low-confidence zones consistently (Extended Data Fig. 4a). Using a different TCR that was isolated from NOD mice, 4-8Ins[57], which recognized the InsB9:23 epitope ([…]), we observed a similar pattern of ES for cognate epitopes (Extended Data Fig. 4b).
For SABR library screens, 3 × 10^6 NFAT–GFP Jurkat cells expressing the SABR library were labeled with CellTrace Violet (BioLegend) according to the manufacturer’s protocol before incubation with 3 × 10^6 Jurkat cells expressing the TCR of interest. These mixtures were incubated in a six-well plate for 16–20 h. Cells were stained with anti-CD69-APC-Cy7 where indicated (BioLegend) and the top 1–2% of GFP^+CD69^+ cells were sorted for genomic DNA extraction, indexing and sequencing (see below). Multiplexed assays were scaled on a per-TCR basis (for example 3 × 10^6 for each of three TCRs against 9 × 10^6 library cells). […]

TCR5 = test: Single SABR-II co-incubation, NFAT-GFP Jurkat; type: cell-based, mouse; settings: TCR 5, Ext. Data Fig. 6C, 18-20 hr
Source text: (§1) We performed systematic screening of the cloned TCRs against the I-Ag7 SABR-II library. Several TCRs along with a positive control (such as BDC2.5 or 4-8Ins) were screened individually against the library for each sort (Extended Data Fig. 6a and Supplementary Table 4). High- and low-confidence ES zones for each screened TCR were defined by the ES values of the control TCR’s cognate epitopes. For all putative cognate epitopes, single SABR-IIs were constructed, expressed in NFAT–GFP Jurkat cells and used for co-incubation with the corresponding TCRs. Co-incubation assays that yielded a GFP signal higher than that obtained in assays with no TCR were determined to be positive and the epitopes deemed true cognate ligands (Extended Data Fig. 6b,c). Using this strategy, we obtained epitopes in the high-confidence zone for eight TCRs (Fig. 3a and Extended Data Fig. 6b,d). Among numerous altered peptide ligands (APLs), these TCRs recognized the physiological InsC-ChgA HIP ([…] and analogs, recognized by TCR5, TCR6B, TCR9 and TCR34), InsC-Iapp HIP ([…] and analogs, recognized by TCR4 and TCR15) and InsB9:23 ([…] and analogs recognized by TCR24 and TCR37). These cognate high-confidence hits were validated using single SABR-II co-incubation assays (Fig. 3b and Extended Data Fig. 7a). Further validations using in vitro mouse interleukin-2 (mIL-2) secretion by TCR-expressing 5KC reporter cells[13] or CD25 expression by TCR-expressing splenic CD4^+ T cells upon stimulation with the cognate epitope were performed (Extended Data Fig. 7b,c). Furthermore, low-confidence hits were called for ten TCRs and tested in co-incubation assays.
(§2) For SABR library screens, 3 × 10^6 NFAT–GFP Jurkat cells expressing the SABR library were labeled with CellTrace Violet (BioLegend) according to the manufacturer’s protocol before incubation with 3 × 10^6 Jurkat cells expressing the TCR of interest. These mixtures were incubated in a six-well plate for 16–20 h. Cells were stained with anti-CD69-APC-Cy7 where indicated (BioLegend) and the top 1–2% of GFP^+CD69^+ cells were sorted for genomic DNA extraction, indexing and sequencing (see below). Multiplexed assays were scaled on a per-TCR basis (for example 3 × 10^6 for each of three TCRs against 9 × 10^6 library cells). For single SABR assays, unless otherwise defined, 5 × 10^5 SABR expressing NFAT–GFP Jurkat cells (or 5KC cells) were labeled with CellTrace Violet (BioLegend) according to the manufacturer’s protocol before incubation with 5 × 10^5 TCR-expressing Jurkat cells (or 5KC cells) in a round-bottom 96-well plate for 16–20 h. Cells were stained with anti-CD69-APC-Cy7 when indicated and acquired on the Attune NxT flow cytometer (Thermo Fisher Scientific). All flow analysis was performed using FlowJo (BD). For Daudi cell co-culture, 1 × 10^6 Jurkat cells expressing the TCR of interest were incubated with 1 × 10^6 Daudi cells expressing a SABR of interest for 3 days. On day 3, cells were labeled with anti-RT1B-PE and anti-Fas-APC-Cy7 before being acquired on the Attune NxT flow cytometer.

Jurkat cells, No TCR = test: Single SABR-II co-incubation, background without TCR; type: cell-based, human; settings: No TCR, Ext. Data Fig. 6C, 18-20 hr
Source text: as §1, §2

TCR4 = test: Single SABR-II co-incubation, NFAT-GFP Jurkat; type: cell-based, mouse; settings: TCR 4, Ext. Data Fig. 6C, 18-20 hr
Source text: as §1, §2

[1] = EXPT1 of 8 biological experiments

Sequence	Enrichment score (BDC2.5 TCR; [1])	Enrichment score (BDC2.5 TCR; EXPT2 of 8)	Enrichment score (BDC2.5 TCR; EXPT3 of 8)	Enrichment score (BDC2.5 TCR; EXPT4 of 8)	Enrichment score (BDC2.5 TCR; EXPT5 of 8)	Enrichment score (BDC2.5 TCR; EXPT6 of 8)	Enrichment score (BDC2.5 TCR; EXPT7 of 8)	Enrichment score (BDC2.5 TCR; EXPT8 of 8)	%GFP+CD69+ cells of SABR-NFAT-GFP-Jurkat cells (TCR5; technical replicate 1) [%]	%GFP+CD69+ cells of SABR-NFAT-GFP-Jurkat cells (TCR5; technical replicate 2) [%]	%GFP+CD69+ cells of SABR-NFAT-GFP-Jurkat cells (Jurkat cells, No TCR; technical replicate 1) [%]	%GFP+CD69+ cells of SABR-NFAT-GFP-Jurkat cells (Jurkat cells, No TCR; technical replicate 2) [%]	%GFP+CD69+ cells of SABR-NFAT-GFP-Jurkat cells (TCR4; technical replicate 1) [%]	%GFP+CD69+ cells of SABR-NFAT-GFP-Jurkat cells (TCR4; technical replicate 2) [%]
AAVRPLWVRMEAA [top putative hit of BDC2.5 TCR in I-Ag7 library]	0.000742	0.000415	0.000612	0.000371	0.0007	0.000851	0.000576	0.000606						
AVRPLWVRME [top putative hit of BDC2.5 TCR in I-Ag7 library]	0.000751	0.000649	0.001092	0.001062	0.001109	0.000835	0.001173	0.001182						
AVRPLWVRMEA [top putative hit of BDC2.5 TCR in I-Ag7 library]	0.000756	0.000652	0.000955	0.000753	0.000651	0.00121	0.001291	0.000826						
EKAHHAIWARMDAKK									38	39.6	0.95	0.84		
EKAHIPIWARMDAKK [top putative hit of BDC2.5 TCR in I-Ag7 library]	0.001977	0.00122	0.003326	0.002646	0.002482	0.002979	0.003083	0.003642						
EKAHRPIWARMDAKK [top putative hit of BDC2.5 TCR in I-Ag7 library]	0.001675	0.001085	0.002939	0.002157	0.001924	0.002825	0.003201	0.003092						
PGAGDLQTLALNAARDP											2.65	2.56	20.2	20.4
RRALQTLALNAARDP											4.17	3.8	12.8	12.1
RTRPLWVRME [top putative hit of BDC2.5 TCR in I-Ag7 library]	0.000766	0.000703	0.00077	0.000734	0.001024	0.001078	0.001083	0.001303						
RVRPLWVRME [top putative hit of BDC2.5 TCR in I-Ag7 library]	0.001251	0.001157	0.001581	0.000795	0.001224	0.001618	0.001744	0.001586						
SRLGAWVRME [top putative hit of BDC2.5 TCR in I-Ag7 library]	0.000522	0.000175	0.000684	0.000306	0.000243	0.000632	0.000765	0.000784						
SRLGLWARME [top putative hit of BDC2.5 TCR in I-Ag7 library]	0.00089	0.000594	0.000983	0.000723	0.000811	0.001313	0.001203	0.001063						
SRLGLWVRMA [top putative hit of BDC2.5 TCR in I-Ag7 library]	0.000692	0.000345	0.000603	0.000358	0.000683	0.000858	0.0006	0.000465						
SRLGLWVRME [top putative hit of BDC2.5 TCR in I-Ag7 library]	0.000716	0.000449	0.000874	0.000616	0.000562	0.000596	0.000875	0.000992						
